Non-standard residues stand in square brackets, D forms with d. No end group written: not given here. Ado = 8-amino-2,4-dioxa octanoic acid
Key:
procalcitonin (rPCT) [1] = experiment: Interference of Bitag 2 peptide with procalcitonin dual-recognition immunoassay in PBS-BSA buffer; design: species or system human
Protocol: (§1) Proximity Extension Assay (PEA™). The Proximity extension assay protocol and the different buffers were taken over from the protocol initially described by Lundberg et al. and also from a recently developed shorter protocol (unpublished results). Proximity extension assay was performed in specific multi-well plates (Hard-Shell 96-Well Clear shell PCR Plates, BioRad, Hercule, CA, USA), in triplicate. Briefly, 5 μL of sample (PBS1x-0.1% BSA buffer or human EDTA plasma with or without rPCT and/or IC peptide) were mixed with 5 μL of a mix of the two PEA™ conjugates (500 pM each) diluted in the probe incubation buffer and incubated at 37° C. for 60 min. After probe incubation, a dilution buffer containing 40 mM of each dNTP were added. After a 5 minutes incubation step at 37° C., 96 μl extension mix containing 26 U/mL of T4 DNA Polymerase (Thermofisher) were added and incubated at 37° C. for an additional 3 minutes, followed by a heat inactivation step at 80° C.
(§2) Detection by qPCR. For qPCR detection, 4 μL of extension products were transferred to a qPCR plate and mixed with 36 μL of qPCR mix (SYBRGREEN mix, Bio-Rad) containing 0.6 μM of each PCR primer. A one-step qPCR was run with initial denaturation at 95° C. for 3 min, followed by 1 sec of denaturation at 95° C. and 10 sec annealing/extension at 63° C. for 40 cycles. Finally, a melt step was performed by increasing the temperature gradually from 60° C. to 95° C. at 0.5° C./sec.
Interference between procalcitonin and internal control. […] The results are illustrated in FIG. 4. For 0.1 ng/mL of rPCT, no significant difference was observed across the range of peptide concentrations added to the sample (mean=34.38±0.15).

[2] = test system: internal control proximity probes; experiment: Internal control dual-recognition immunoassay in human plasma specimens spiked with rPCT and Bitag peptide; type: binding, mouse; conditions: Bitag peptide at 50 ng/mL
Protocol: as §1
as §2, with “Finally, a melt step was performed by increasing the temperature gradually from 60° C. to 95° C. at 0.5° C./sec.” left out

[3] = test system: internal control proximity probes (18D12 anti-His tag and 2G4 anti-Lys tag antibodies coupled to MML or MMC oligonucleotides); experiment: Dual-recognition immunoassay (PEA) of Bitag peptide spiked in PBS-BSA buffer, qPCR readout; type: binding, mouse; conditions: for Delta-Ct0-50: 0 vs 50 ng/mL peptide
Protocol: Proximity probes. Proximity probes were prepared by covalently linking purified PCT monoclonal antibodies to HPLC-purified oligonucleotides. […] Synthesis, modifications and HPLC-purification of the oligonucleotides were all performed by Integrated DNA Technologies (Louvain, Belgium). Antibody-oligonucleotide conjugates were generated using commercial Thunderlink kit (Abcam, Cambridge, UK), following the manufacturer's instructions, using a 5:1 oligonucleotide-to-antibody ratio. Conjugation quality was checked by running conjugates on a reducing 4-12% SDS-PAGE (Thermofisher, Waltham, MA, USA) followed by Coomassie Blue staining (Thermofisher) as recommended by the supplier's instructions (Abcam).
as §1, §2
Second, to determine the best combination of spacer size and oligonucleotide length, proximity probes were tested successively on the two Bitag 1 and Bitag 2 peptides. The first type of probes, called MML, featured a longer version of the oligonucleotides (49 and 56 bases), whilst the second type of probes, called MMC, featured a shorter version of the oligonucleotides (29 and 31 bases). For both MML and MMC, the size of the complementary sequence located at the 3′-end of each oligonucleotide was 9 nucleotides.
FIG. 2 summarizes the dual-recognition immunoassay results obtained for three concentrations of Bitag peptide (0, 5 and 50 ng/mL) spiked in PBS-BSA buffer.

[4] = test system: internal control proximity probes; experiment: Procalcitonin and internal control DRI in parallel in PBS-BSA, PCR with internal control primer set; design: species or system mouse; conditions: rPCT 0 or 0.1 ng/mL; peptide 0 to 160 ng/mL
Protocol: as §1
as §2, with “Finally, a melt step was performed by increasing the temperature gradually from 60° C. to 95° C. at 0.5° C./sec.” left out

[5] = test system: internal control proximity probes MMC (18D12 and 2G4); experiment: Dual-recognition immunoassay (PEA) of Bitag 2 peptide spiked in human plasma, MMC probes; type: binding, mouse; conditions: for loss of Delta-Ct in human plasma compared to PBS-BSA: pool of three plasma specimens
Protocol: Whole blood specimens were obtained from healthy donors from the French National Blood Bank (EFS, Etablissement Français du Sang, Lyon, France). Samples were selected on the basis of a negative PCT test. Fresh blood was centrifuged for five min at 20 000 g, at 4° C., using a refrigerated microcentrifuge (Eppendorf 5424R, Montesson, France). After centrifugation, the supernatant, which corresponds to the plasma, was recovered for Dual-recognition immunoassay and stored at 4° C. before use. For all biological samples, informed consent was obtained for any experimentation. All experiments were performed in compliance with the relevant laws and institutional guidelines and in accordance with the ethical standards of the Declaration of Helsinki.
as §1, §2
In order to confirm these preliminary results obtained on peptide diluted in the PBS-BSA buffer, PEA™ was performed, using MMC probes, on human plasma (pool of three plasma specimens) spiked with four concentrations of Bitag 2 peptide, from 0 to 500 ng/mL. The results are illustrated in FIG. 3a. Overall, while the assay presented a similar dynamic to that obtained in PBS-BSA buffer, Delta-Ct values appeared to be slightly lower compared to those obtained in PBS-BSA (loss of 0.26 and 0.36 for 5 ng/mL and 50 ng/mL of peptide, respectively). In addition, for 500 ng/mL, a significant loss of dynamic was observed (Delta-Ct50-500 of 0.9 versus Delta-Ct5-50 of 2.72).
Third, a Bitag 2 concentration suitable for internal control Dual-recognition immunoassay had to be chosen. […] To confirm the specificity of the results obtained with 50 ng/mL of Bitag 2 peptide, human plasma specimens were tested by Dual-recognition immunoassay after addition of 50 ng/mL of peptide (n=25 samples) or without peptide complementation (n=13 samples). According to a Mann-Whitney test, the difference between the two groups was significant (P<0.001).

procalcitonin (rPCT) [6] = experiment: Procalcitonin and internal control DRI in parallel in PBS-BSA, PCR with primers specific of the PCT DRI probes; design: species or system human; conditions: 0 ng/mL PCT, PCT primer set
Protocol: as §1
as §2, with “Finally, a melt step was performed by increasing the temperature gradually from 60° C. to 95° C. at 0.5° C./sec.” left out

[7] = test system: 18D12 monoclonal antibody (anti-His tag); experiment: Indirect ELISA on plates coated with Bitag peptide, detection with anti-His tag antibody; type: binding, mouse
Protocol: (§3) Enzyme Linked Immuno-Sorbant Assays (ELISA). After overnight sensitization with peptides diluted at 5 μg/mL in PBS buffer, pH 7.4 (Euromedex, Souffelweyersheim, France), Nunc 96-well plates (Thermofisher) were saturated for 1 h at room temperature (RT) with PBS1x-Bovine Serum Albumin 5% (BSA, Sigma-Aldrich, Saint Louis, MI, USA). After 4 washes with PBS1x-Tween20 0.1%, PBS1x-BSA 1% buffer containing the anti-tag antibody (at 1 μg/mL) was added and incubated for 1 h at 37° C. The developing with PNPP substrates (Thermofisher) was performed after 30 min of incubation at 37° C. with a 1/50 000 dilution in PBS-BSA-0.5% of an alkaline phosphatase (AP)-labeled streptavidin (Jackson Immunoresearch, Ely, UK). The absorbance level (optical density, OD) was red at 405 nm (OD405) using an Infinite M Nano+ microplate reader (Tecan, Mannedorf, Switzerland). All samples were tested in duplicate and in three independent experiments.
(§4) Selection and validation of the Bitag peptides and the proximity probes. First, to check that the anti-tag antibodies do bind to their epitopes in the context of the Bitag peptides, indirect ELISA was performed by sensitizing multiwall plates with either Bitag 1 or Bitag 2 peptides at two concentrations (1 μg/mL and 5 μg/mL). For the two coated peptides, 18D12 monoclonal antibody (anti-His tag) or 2G4 and 5F12 monoclonal antibodies (anti-Lys tag) were used for detection with an AP-labelled anti-mouse conjugate.

[8] = test system: 5F12 monoclonal antibody (anti-Lys tag); experiment: Indirect ELISA on plates coated with Bitag peptide, detection with anti-Lys tag antibody 5F12; type: binding, mouse; conditions: 5 μg versus 1 μg of peptide
Protocol: as §3
Selection and validation of the Bitag peptides and the proximity probes. First, to check that the anti-tag antibodies do bind to their epitopes in the context of the Bitag peptides, indirect ELISA was performed by sensitizing multiwall plates with either Bitag 1 or Bitag 2 peptides at two concentrations (1 μg/mL and 5 μg/mL). […]

[9] = test system: 2G4 monoclonal antibody (anti-Lys tag); experiment: Indirect ELISA on plates coated with Bitag peptide, detection with anti-Lys tag antibody 2G4; type: binding, mouse
Protocol: as §3, §4

MRGSHHHHHHNNNGKKKKKKSV (MRGSHHHHHH[Ado][Ado][Ado]GKKKKKKSV-NH2) [Bitag 2, His tag and Lys tag separated by 3 Ado spacers; N is 8-amino-2,4-dioxa octanoic acid]
Ct of procalcitonin DRI (procalcitonin (rPCT) [1]; 0 ng/mL rPCT, 160 ng/mL of peptide): 35.9
Ct of procalcitonin DRI, average value for the other peptide concentrations (procalcitonin (rPCT) [1]; 0 ng/mL rPCT, peptide concentrations other than 160 ng/mL): 36.98
Ct of procalcitonin DRI, mean across the range of peptide concentrations (procalcitonin (rPCT) [1]; 0.1 ng/mL rPCT, Bitag 2 from 0 to 200 ng/mL): 34.38±0.15
Ct mean value for the internal control ([2]; 0 ng/mL of PCT): 33.53±0.11
Ct mean value for the internal control ([2]; 10 ng/mL of PCT): 34.23±0.40
gain in Delta-Ct for MMC versus MML ([3]; 5 ng/mL of peptide, PBS-BSA buffer): 2.32
gain in Delta-Ct for MMC versus MML ([3]; 50 ng/mL of peptide, PBS-BSA buffer): 1.86
Delta-Ct0-50 ([3]; MMC probes, PBS-BSA buffer): 7.08
Delta-Ct0-50 ([3]; MML probes, PBS-BSA buffer): 5.22
Delta-Ct of the combination of MMC oligonucleotides and peptide, compared with the other combinations ([3]; peptide concentrations tested (5 and 50 ng/mL), PBS-BSA): highest Delta-Ct
interference of procalcitonin on Ct with internal control PCR primer set [4]: no interference
loss of Delta-Ct in human plasma compared to PBS-BSA ([5]; 5 ng/mL of peptide, MMC probes): 0.26
loss of Delta-Ct in human plasma compared to PBS-BSA ([5]; 50 ng/mL of peptide, MMC probes): 0.36
Delta-Ct5-50 ([5]; human plasma, 5 vs 50 ng/mL peptide, MMC probes): 2.72
Delta-Ct50-500 ([5]; human plasma, 50 vs 500 ng/mL peptide, MMC probes): 0.9
dynamic range of detection ([5]; short (MMC) oligonucleotides): about 3 orders of magnitude
Delta-Ct between sample with 40 ng of peptide and sample without peptide (background noise) (procalcitonin (rPCT) [6]): 1.4

MRGSHHHHHHSVDESNNNGKKKKKKSVDESL (MRGSHHHHHHSVDES[Ado][Ado][Ado]GKKKKKKSVDESL-NH2) [Bitag 2′, long His tag and long Lys tag, three spacer units; N is 8-amino-2,4-dioxa octanoic acid]
results obtained with Bitag 2 peptide repeated with this peptide ([3]; data not shown): reproduced and confirmed

MRGSHHHHHHNNGKKKKKKSV (MRGSHHHHHH[Ado][Ado]GKKKKKKSV-NH2) [Bitag 1, His tag and Lys tag separated by two Ado spacers; N is 8-amino-2,4-dioxa octanoic acid]
Delta-Ct for MMC compared with MML probes ([3]; PBS-BSA buffer): higher
OD405 ([7]; 1 μg of Bitag 1 peptide, detection with 18D12): 0.617
increase of OD405 for 5 μg of peptide ([7]; 5 μg versus 1 μg of peptide, 18D12): +0.262
signal in the presence of peptide relative to signal without peptide ([7]; 18D12 antibody, 1 μg of Bitag 1): 5.42 times
increase of OD405 for 5 μg of peptide [8]: +0.074
OD405 ([9]; 1 μg of Bitag 1 peptide, detection with 2G4): 0.993
increase of OD405 for 5 μg of peptide ([9]; 5 μg versus 1 μg of peptide, 2G4): +0.089
signal in the presence of peptide relative to signal without peptide ([9]; 2G4 antibody, 5 μg of Bitag 1): 9.17 times

From patent US20260193298A1, “SYNTHETIC PEPTIDE FOR USE IN AN IMMUNOMOLECULAR ASSAY” (BIOMÉRIEUX, priority 2022, published 2026)
